Reference: patent US20230135729A1, “COMPOUND WITH ANTI-SPORE ACTIVITY AND PHARMACEUTICAL COMPOSITION THEREOF” (priority 2020, published 2023)
Values after ≈ are worked out from the molar mass of the structure shown.

How the values were obtained:
Type in all cases: cell-based
[1] = system: spores of ATCC 43255 strain; assay: Inhibition of germination of C. difficile spores (MIC), strain ATCC 43255; details: Clostridioides difficile, ATCC43255, 1 h; strain 43255; sodium taurocholate as germinant, BHIS medium, 37° C., OD580 for 60 min; read-out: MIC (minimum concentration that completely inhibits spore germination)
Summary of the method: (§1)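 Spores heat-activated for 30 min at 65° C and washed, then preincubated with compound (10 mM DMSO stock) in BHIS at 37° C. Germination was triggered with sodium taurocholate, and OD580 was read each minute for 60 min. Inhibition = 100% − germination rate, from final vs initial OD relative to germinant-only controls.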

[2] = system: various C. difficile spores; assay: Inhibition of germination of C. difficile spores, summary over the strains; details: Clostridioides difficile; Table 1, all strains
Procedure: According to a method disclosed in “The Journal of Infectious Diseases. 2013; 207: 1498-504”, spores of ATCC BBA1870, ATCC 43255 and ATCC 630 strains were obtained by culture and purification, and stored at 4° C.
Spore preparation: the C. difficile spores stored at 4° C. were heat-activated for 30 min at 65° C., centrifuged at 9,400 g for 2 min, and washed three times to remove any self-germinating spores.
Control drug: three cholic acid derivatives, a compound CamSA, a compound 20β (prepared by the method of “Journal of Medicinal Chemistry. 2017, 60 (8): 3451-3471”), and a compound 12a (prepared by the method of “Journal of Medicinal Chemistry. 2018, 61, 6759-6778”), were used as control drugs.
Compound preparation: the compound of the present disclosure, and the positive control drugs CamSA, 20β, and 12a were dissolved in DMSO, to prepare a stock solution with a concentration of 10 mM (prepared for immediate use).
The detection was conducted in a 96-well cell culture plate at a constant temperature of 37° C.; a final volume of each well of the 96-well plate was […] and a buffer was the BHIS medium; 150 μl of spores and drugs were added to the well in advance, and 50 μl of 4 mg/ml sodium taurocholate was added; OD580 was detected every 1 min immediately using a microplate reader, for continuously 60 min. A germination agent control group and a non-germination group were set up; after the detection, a final OD value of each well was compared with an initial value, and compared with the germination agent group to calculate a germination rate and an inhibition rate. A formula for the germination rate was:
Inhibition rate=100%−germination rate.

[3] = system: spores of ATCC BBA1870 strain; assay: Inhibition of germination of C. difficile spores (MIC), strain ATCC BBA1870; details: Clostridioides difficile, ATCCBBA1870STRAIN, 1 h; strain 1870; sodium taurocholate as germinant, BHIS medium, 37° C., OD580 for 60 min; read-out: MIC (minimum concentration that completely inhibits spore germination)
Summary of the method: as §1

[4] = system: spores of ATCC 630 strain; assay: Inhibition of germination of C. difficile spores (MIC), strain ATCC 630; details: Clostridioides difficile, ATCC630, 1 h; strain 630; sodium taurocholate as germinant, BHIS medium, 37° C., OD580 for 60 min; read-out: MIC (minimum concentration that completely inhibits spore germination)
Summary of the method: as §1

SMILES | MIC [1] [µM] | MIC [2] [µM] | MIC [3] [µM] | MIC [4] [µM]
CCCC(NC(=O)C[C@@H](C)[C@H]1CC[C@H]2[C@@H]3C(=O)C[C@@H]4CC(=O)CC[C@]4(C)[C@H]3CC[C@]12C)c1cccs1 (stereo partly shown) [Compound I-41] | 0.5 (≈ 0.256 µg/mL) | ≤ 1 | 0.5 (≈ 0.256 µg/mL) | 0.5 (≈ 0.256 µg/mL)
CC(NC(=O)C[C@@H](C)[C@H]1CC[C@H]2[C@@H]3C(=O)C[C@@H]4CC(=O)CC[C@]4(C)[C@H]3CC[C@]12C)c1ccc(Cl)s1 (stereo partly shown) [Compound I-32] | 0.5 (≈ 0.259 µg/mL) | ≤ 1 | 0.5 (≈ 0.259 µg/mL) | 0.5 (≈ 0.259 µg/mL)
C[C@H](CC(=O)NC(c1ccc(Cl)s1)C1CC1)[C@H]1CC[C@H]2[C@@H]3C(=O)C[C@@H]4CC(=O)CC[C@]4(C)[C@H]3CC[C@]12C (stereo partly shown) [Compound I-51] | 0.5 (≈ 0.272 µg/mL) | ≤ 1 | 0.5 (≈ 0.272 µg/mL) | 0.5 (≈ 0.272 µg/mL)
CCC(NC(=O)C[C@@H](C)[C@H]1CC[C@H]2[C@@H]3C(=O)C[C@@H]4CC(=O)CC[C@]4(C)[C@H]3CC[C@]12C)c1cccs1 (stereo partly shown) [Compound I-35] | 0.5 (≈ 0.249 µg/mL) | ≤ 1 | 0.5 (≈ 0.249 µg/mL) | 0.5 (≈ 0.249 µg/mL)
CC[C@@H](NC(=O)C[C@@H](C)[C@H]1CC[C@H]2[C@@H]3C(=O)C[C@@H]4CC(=O)CC[C@]4(C)[C@H]3CC[C@]12C)c1cccs1 [Compound I-37] | 0.25 (≈ 0.124 µg/mL) | ≤ 1 | 0.25 (≈ 0.124 µg/mL) | 0.25 (≈ 0.124 µg/mL)
C[C@H](CC(=O)N[C@@H](c1cccs1)C1CC1)[C@H]1CC[C@H]2[C@@H]3C(=O)C[C@@H]4CC(=O)CC[C@]4(C)[C@H]3CC[C@]12C [Compound I-50] | 0.25 (≈ 0.127 µg/mL) | ≤ 1 | 0.25 (≈ 0.127 µg/mL) | 0.25 (≈ 0.127 µg/mL)
C[C@H](CC(=O)N[C@H](c1cccs1)C1CC1)[C@H]1CC[C@H]2[C@@H]3C(=O)C[C@@H]4CC(=O)CC[C@]4(C)[C@H]3CC[C@]12C [Compound I-49] | > 256 |  | > 256 | > 256
CC(C)[C@@H](NC(=O)C[C@@H](C)[C@H]1CC[C@H]2[C@@H]3[C@H](N)C[C@@H]4CC(=O)CC[C@]4(C)[C@H]3CC[C@]12C)c1ccc(Cl)s1 [Compound I-174] | 32 (≈ 17.5 µg/mL) |  | 32 (≈ 17.5 µg/mL) | 32 (≈ 17.5 µg/mL)
C[C@H](CC(=O)NCc1nccs1)[C@H]1CC[C@H]2[C@@H]3C(=O)C[C@@H]4C[C@H](O)CC[C@]4(C)[C@H]3CC[C@]12C [Compound I-15] | 64 (≈ 30.3 µg/mL) |  | 32 (≈ 15.1 µg/mL) | 32 (≈ 15.1 µg/mL)
CC(C)[C@@H](NC(=O)C[C@@H](C)[C@H]1CC[C@H]2[C@@H]3C[C@H](O)[C@@H]4C[C@H](O)CC[C@]4(C)[C@H]3CC[C@]12C)c1ccc(Br)s1 [Compound I-128] | 2 (≈ 1.19 µg/mL) |  | 2 (≈ 1.19 µg/mL) | 1 (≈ 0.595 µg/mL)
C[C@H](NC(=O)C[C@@H](C)[C@H]1CC[C@H]2[C@@H]3C(=O)C[C@@H]4CC(=O)CC[C@]4(C)[C@H]3CC[C@]12C)c1ccccc1 [Compound I-24] | > 256 |  | > 256 | > 256
C[C@H](CC(=O)NC(c1cccs1)C1CC1)[C@H]1CC[C@H]2[C@@H]3C(=O)C[C@@H]4CC(=O)CC[C@]4(C)[C@H]3CC[C@]12C (stereo partly shown) [Compound I-48] | 0.5 (≈ 0.255 µg/mL) | ≤ 1 | 0.5 (≈ 0.255 µg/mL) | 0.5 (≈ 0.255 µg/mL)
CCCCCCCC(NC(=O)C[C@@H](C)[C@H]1CC[C@H]2[C@@H]3C(=O)C[C@@H]4CC(=O)CC[C@]4(C)[C@H]3CC[C@]12C)c1cccs1 (stereo partly shown) [Compound I-45] | > 256 |  | > 256 | > 256
CC(NC(=O)C[C@@H](C)[C@H]1CC[C@H]2[C@@H]3[C@H](O)[C@H](O)[C@@H]4C[C@H](O)CC[C@]4(C)[C@H]3CC[C@]12C)c1cccs1 (stereo partly shown) [Compound I-22] | 8 (≈ 4.03 µg/mL) |  | 8 (≈ 4.03 µg/mL) | 8 (≈ 4.03 µg/mL)
CC(NC(=O)C[C@@H](C)[C@H]1CC[C@H]2[C@@H]3[C@H](O)C[C@@H]4C[C@H](O)CC[C@]4(C)[C@H]3C[C@H](O)[C@]12C)c1ccccc1 (stereo partly shown) [Compound I-19] | 32 (≈ 15.9 µg/mL) |  | 64 (≈ 31.9 µg/mL) | 32 (≈ 15.9 µg/mL)
